Measurements taken from PMC8043124 (ACS Infectious Diseases, 2021).

What was measured:
[1] = system: P. aeruginosa (strain PA14); assay: Checkerboard assay of potentiator-antibiotic pairs; type: cell-based, Pseudomonas aeruginosa; conditions: for Antibiotic MIC with WD40 relative to clinical breakpoint: PA14, with WD40, breakpoints for Gram-positive species (EUCAST)
[2] = system: P. aeruginosa clinical isolates (BWH006, BWH012, BWH013, BWH021, BWH027); assay: Checkerboard assay of potentiator-antibiotic pairs in clinical isolates; type: cell-based, Pseudomonas aeruginosa; conditions: for Antibiotic MIC with WD40 relative to clinical breakpoint: 10 μM WD40, MIC95, breakpoints for Gram-positive species (EUCAST); for MIC of antibiotic alone: range over isolates, Figure 6 names MIC95

Antibiotic MIC with WD40 relative to clinical breakpoint [1] | Antibiotic MIC with WD40 relative to clinical breakpoint [2] | MIC of antibiotic alone [2] | MIC of antibiotic alone ([1]; PA14) | Compound
clinical breakpoints were met | did not meet their clinical breakpoints | 512 to 1024 µg/mL | – | CC(=O)O[C@H]1C[C@@]2(C)[C@@H](C[C@@H](O)[C@H]3[C@@]4(C)CC[C@@H](O)[C@@H](C)[C@@H]4CC[C@@]32C)/C1=C(\CCC=C(C)C)C(=O)O [fusidic acid]
to the clinical breakpoint | below its clinical breakpoint | 8 to 16 µg/mL | 512 µg/mL | CO[C@H]1/C=C/O[C@@]2(C)Oc3c(C)c(O)c4c(O)c(c(/C=N/N5CCN(C)CC5)c(O)c4c3C2=O)NC(=O)/C(C)=C\C=C\[C@H](C)[C@H](O)[C@@H](C)[C@@H](O)[C@@H](C)[C@H](OC(C)=O)[C@@H]1C [rifampin]
